Results: US20190314436A1, “PHARMACEUTICAL COMPOSITION FOR PREVENTION OR TREATMENT OF LIVER CANCER AND HEALTH FUNCTIONAL FOOD” (KOREA BIO MEDICAL SCIENCE INSTITUTE CO., LTD, priority 2016, published 2019)

Tests used:
[1] = tested on: Huh7 cells; test: MTT assay, liver cancer growth inhibition / cell death; assay type: cell-based; conditions: 48 hours
Method: Hepatoma cell proliferation inhibitory efficacies of the Ulmi cortex extract (WSY-0), Nardostachys jatamansi extract (WSY-1), Lophatheri Herba extract (WSY-3) and Torilis japonica extract (WSY-37) in target cells or mice treated with the same were validated by MTT assay and effective concentrations thereof were determined.
In vitro liver cancer growth inhibitory abilities of four (4) natural products (WSY-0, WSY-1, WSY-3, and WSY-37) were verified by the MTT assay.
With respect to the 4 types of natural products, total 8 types of extracts were prepared through hydrothermal extraction and ethanol extraction, respectively. These extracts were identified to have in vitro liver cancer growth inhibitory ability in 5 types of liver cancer cell lines (Huh7, HepG2, Hep3B, PLC/PRF5, and SK-hep1).
Further, in treatment using each of three ethanol extracts in an amount of 200 μg/mL except WSY-37, the cell growth inhibitory ability was identified in 4 types of liver cancer cell lines except Hep G2 cells.
When treating Huh7 cells with sorafenib for 48 hours, it was identified that about 60% cell death was induced with 2 μM of sorafenib and about 80% cell death was induced with 4 μM of sorefenib, respectively (see FIG. 1).

[2] = tested on: HCCLM3 cells; test: Cell death in hyper-metastatic HCC cell line; assay type: cell-based; conditions: HCCLM3, 16 μM, 48 hours
Excerpt: By treatment of HCCLM3 cells using WSY-1 or WSY-3 extract in ethanol to identify cell death effects, in vitro anti-cancer effects of the natural extracts on cell lines having different sorafenib sensitivities were investigated.

[3] = tested on: HCCLM3 hepatocellular carcinoma; test: Orthotopic HCC model, HCCLM3 via liver portal vein; assay type: in vivo, Balb/c nu/nu mouse; conditions: 30 mpk oral daily, 8 weeks
Excerpt: Establishment of Hepatocellular Carcinoma (HCC) in Small Animal Models
In order to induce HCC in a small animal model, a method of injecting chemicals such as DEN or a method of directly injecting HCC cells into the model is used. Although DEN treatment is convenient in view of experiment, this process entails a disadvantage in that a long period of time (about 50 weeks) is required for generation of tumors (‘tumorigenesis’). Therefore, in order to efficiently verify in vivo anticancer effects of natural extracts for a short period of time, an orthotopic implantation model of directly injecting HCC cells into the liver of a mouse was implemented.
The orthotopic implantation model is a method of inducing formation of cancer in liver tissues by directly injecting HCC cell lines such as Huh7 or HCCLM3 into hepatic portal vein or mesenchyma (liver lobe) of the mouse, and takes about 8 weeks to form tumors, which is considerably shorter than DEN, thus being properly used.
Efficacies of the Ulmi cortex extract (WSY-0), Nardostachys jatamansi extract (WSY-1), Lophatheri Herba extract (WSY-3) or Torilis Japonica extract (WSY-37) on HCC formation and suppression thereof have been validated through liver gross, H & E staining and serum analysis. […]

[4] = tested on: Hepa1-6 hepatocellular carcinoma; test: Orthotopic HCC model, Hepa1-6 via liver portal vein; assay type: in vivo, C57/BL6 mouse; conditions: WSY-1 100 mpk, sorafenib 30 mpk, oral daily
Method: In the present study, based on results of the primary in vivo efficacy validation experiment and preliminary experiment, the following experiment conditions were set up and the secondary validation experiment was implemented.
Administered cell/administration route: 5×10^5 Hepa1-6-GFP cells/liver portal vein
Dose/administration route/dosing frequency: WSY-1 100 mpk, sorafenib 30 mpk/oral administration/daily
5×10^5 Hepa1-6GFP cells were administered to the liver portal vein of each 6-week-old C57/BL6 mouse. 3 days later, the mice were randomly grouped, followed by administration of WSY-1 and sorafenib for 3 weeks.
During 3 weeks administration period, death (mortality) due to tumorigenesis was induced in the following experimental groups. After termination of the administration, survived mice were sacrificed and analyzed for anti-cancer effects.

[5] = tested on: liver cancer; conditions: cited from earlier work

CNC(=O)c1cc(Oc2ccc(NC(=O)Nc3ccc(Cl)c(C(F)(F)F)c3)cc2)ccn1 [sorafenib]
cell death ([1]; Huh7, 2 μM): about 60%
cell death ([1]; Huh7, 4 μM): about 80%
apoptotic effects [2]: ≤ 50%
liver weight/body weight vs mice with HCCLM3 only [3]: decreased
death (mortality) due to tumorigenesis ([4]; 3 weeks administration): 4 out of 13
liver weight/body weight vs mice injected with Hepa1-6 cells only ([4]; 3 weeks): significantly decreased
patients with partial response ([5]; 137 patients, Phase 2 clinical trials): ≤ 5%
extension of life compared to placebo dose group ([5]; orally administered): ~3 months
